Laboratory results published in patent US7674463B1, “Method of inhibiting angiogenesis by administration of a corticotropin releasing factor receptor 2 agonist” (Research Development Foundation, priority 1999, dated 2010).
Entries after “also recorded” stand apart in the source; their conditions may differ. No end group written: not given here.

What was measured:
[1] = system: mice; experiment: hair growth over gel foam sponge implanted under shaved skin; assay type: in vivo; settings: after five days
Excerpt: Small regions area of mice were shaved over of their skin and gel foam sponges impregnated with bFGF and urocortin, various growth factors, and CRF antagonist astressin were surgically implanted under the shaved skin. […] Therefore, urocortin and bFGF stimulate rapid hair growth.

[2] = system: wild type mice; experiment: cardiovascular response to intravenous infusion, wild type mice; assay type: in vivo
Excerpt: (§1) The cardiovascular responses to intravenous infusion of urocortin and sodium nitroprusside, a vasodilator, were examined in mice (wild type: n 5; mutant: n=3) anesthetized with isofluorine. The arterial catheter for blood pressure recording was fabricated from a sterile PE-10 tubing softened and pulled to an outer diameter of ˜0.4 mm. The femoral artery was exposed, and the arterial catheter filled with heparin saline (500 U/ml) was implanted and secured with surgical threads and tissue glue (Vetbond). […] A second catheter was then implanted in the external jugular vein for intravenous infusion of drugs. Drug infusion was performed […] following completion of the cannulation procedure. The venous catheter was connected to a drug-filled syringe. Infusion was completed within 0.5-1.0 min. Both wild type and mutants received an identical dose of urocortin (0.1 μg in 200 μl of 0.9% saline) and saline (as a control).
(§2) The doses used were determined from preliminary experiments with reference to data obtained from corresponding studies in Sprague Dawley rats (2). In order to verify that the lack of cardiovascular response to the urocortin injection in mutants was not attributed to the loss of ability of the mice to vasodilate, the mutant mice also received a second infusion of sodium nitroprusside (0.8 μg in 100 μl of 0.9% saline) following recovery of arterial pressure from the urocortin infusion. The mean arterial pressure (MAP) was determined from the blood pressure tracings.

[3] = system: CRFR2 null mutant mice; experiment: cardiovascular response to intravenous infusion, CRFR2 null mutant mice; assay type: in vivo; settings: for arterial pressure response to urocortin: intravenous infusion
Excerpt: as §1, §2

[4] = system: CRFR2; settings: urocortin versus CRF; cited from earlier work

| Substance | hair growth in shaved area above implanted sponge [1] | depressor response (change in arterial pressure) ([2]; control mice, anesthetized, urocortin 0.1 μg intravenous infusion) [mm Hg] | persistence of the reduction in arterial pressure (recording period) ([2]; control mice, urocortin 0.1 μg intravenous infusion) [min] | mean arteriole pressure response to intravenous urocortin ([2]; wild type animals) | arterial pressure response to urocortin [3] | arterial pressure response to urocortin ([3]; listed as UCN) | reduction in arterial pressure, only 1 mutant mouse, transient ([3]; urocortin 0.1 μg intravenous, likely attributable to injection pressure) [mmHg] | affinity for CRFR2 relative to CRF [4] [fold] |
| --- | --- | --- | --- | --- | --- | --- | --- | --- |
| astressin | Little hair growth | – | – | – | – | – | – | – |
| urocortin (DNPSLSIDLTFHLLRTLLELARTQSQRERAEQNRIIFDSV; ends and bridges not checked; UniProt P55089 83-122, looked up) [a CRF-related peptide, thought to be the endogenous ligand for CRFR2] | – | −28.3±2.0 | 90 to 120 | dramatic decrease | no measurable responses; also recorded: no response | remarkable muted response | −3.5 | ~40 |
